# Calls of active or inactive are those of the source. The calls are words filed in the database; no cut-off is given here.
# Assays:
# [1] = Cytotoxicity against human Friedreich's ataxia lymphocytes assessed as cell viability by measuring live cells at 250 nM after 48 hrs by calceinAM ester/ethidium homodimer-1 staining based flow cytometry (reference value: 89.3%); parameters: species or system Friedreich's ataxia lymphocyte; details: read-out: Activity
# [2] = Cytotoxicity against human Friedreich's ataxia lymphocytes assessed as cell viability by measuring dead cells at 2500 nM after 48 hrs by calceinAM ester/ethidium homodimer-1 staining based flow cytometry (reference value: 10.6%); details: friedreich's ataxia lymphocyte, 2.5 µM
# [3] = Induction of inner mitochondrial membrane potential depolarization in human Friedreich's ataxia lymphocytes assessed as JC-1 monomers at 2500 nM after 16 hrs by JC1-staining based flow cytometry (reference value: 17.3%); assay type: functional, Friedreich's ataxia lymphocyte
# [4] = Cytotoxicity against human Friedreich's ataxia lymphocytes assessed as cell viability by measuring dead cells at 250 nM after 48 hrs by calceinAM ester/ethidium homodimer-1 staining based flow cytometry (reference value: 10.6%); details: friedreich's ataxia lymphocyte, 0.25 µM
# [5] = system: Friedreich's ataxia lymphocyte; assay: Cytoprotective activity against rotenone-induced cytotoxicity in human Friedreich's ataxia lymphocytes assessed as increase in cell viability at 250 to 2500 nM preincubated for 12 hrs followed by complex 1 inhibitor rotenone addition measured after 16 hrs by calceinAM ester/ethidium homodimer-1 staining based flow cytometry; assay type: functional
# Homo sapiens [6] = species: Homo sapiens; assay: Cytoprotective activity against BSO-treated human Friedreich's ataxia fibroblasts assessed as increase in cell viability at 25 to 50 nM incubated overnight followed by BSO addition measured after 48 hrs by calceinAM ester/ethidium homodimer-1 staining based flow cytometry; assay type: functional
# [7] = (§1) Induction of mitochondrial biogenesis in FRDA patient derived Friedreich's ataxia lymphocytes assessed as increase in COX-1/SDH-A protein levels at 250 nM after 24 to 48 hrs by ELISA; assay type: functional, Homo sapiens, Friedreich's ataxia lymphocyte
# [8] = (§2) Cytoprotective activity against BSO-treated human Friedreich's ataxia fibroblasts assessed as increase in cell viability incubated overnight followed by BSO addition measured after 48 hrs by calceinAM ester/ethidium homodimer-1 staining based flow cytometry; assay type: functional
# Homo sapiens [9] = species: Homo sapiens; assay: as §2; assay type: functional
# [10] = system: Friedreich's ataxia lymphocyte; assay: Increase in total ATP levels in human Friedreich's ataxia lymphocytes at 0.5 to 2.5 uM after 24 hrs by bioluminescence assay; assay type: functional, cell-based
# [11] = system: Friedreich's ataxia lymphocyte; assay: Inhibition of DEM-induced ROS production in human Friedreich's ataxia lymphocytes incubated for 16 hrs followed by DEM treatment for 80 mins by DCFH-DA dye based flow cytometry; assay type: functional, cell-based
# [12] = Induction of inner mitochondrial membrane potential depolarization in human Friedreich's ataxia lymphocytes assessed as JC-1 monomers at 250 nM after 16 hrs by JC1-staining based flow cytometry (reference value: 17.3%); assay type: functional, Friedreich's ataxia lymphocyte
# [13] = Cytotoxicity against human Friedreich's ataxia lymphocytes assessed as cell viability by measuring live cells at 2500 nM after 24 hrs by calceinAM ester/ethidium homodimer-1 staining based flow cytometry (reference value: 88.2%); parameters: species or system Friedreich's ataxia lymphocyte; details: read-out: Activity
# [14] = (§3) Increase in frataxin protein expression levels in FRDA patient derived Friedreich's ataxia lymphocytes at 250 nM after 24 to 48 hrs by ELISA; assay type: functional, Homo sapiens, Friedreich's ataxia lymphocyte
# [15] = Induction of inner mitochondrial membrane potential depolarization in human Friedreich's ataxia lymphocytes assessed as JC-1 aggregates at 250 nM after 16 hrs by JC1-staining based flow cytometry (reference value: 83%); assay type: functional, Friedreich's ataxia lymphocyte
# [16] = system: Friedreich's ataxia lymphocyte; assay: Increase in total ATP levels in human Friedreich's ataxia lymphocytes at 100 nM after 24 hrs by bioluminescence assay; assay type: functional, cell-based
# [17] = Cytotoxicity against human Friedreich's ataxia lymphocytes assessed as cell viability by measuring dead cells at 2500 nM after 24 hrs by calceinAM ester/ethidium homodimer-1 staining based flow cytometry (reference value: 11.2%); details: friedreich's ataxia lymphocyte, 2.5 µM
# [18] = Cytotoxicity against human Friedreich's ataxia lymphocytes assessed as cell viability by measuring live cells at 2500 nM after 48 hrs by calceinAM ester/ethidium homodimer-1 staining based flow cytometry (reference value: 89.3%); parameters: species or system Friedreich's ataxia lymphocyte; details: read-out: Activity
# [19] = Cytotoxicity against human Friedreich's ataxia lymphocytes assessed as cell viability by measuring live cells at 250 nM after 24 hrs by calceinAM ester/ethidium homodimer-1 staining based flow cytometry (reference value: 88.2%); parameters: species or system Friedreich's ataxia lymphocyte; details: read-out: Activity
# [20] = Cytotoxicity against human Friedreich's ataxia lymphocytes assessed as cell viability by measuring dead cells at 250 nM after 24 hrs by calceinAM ester/ethidium homodimer-1 staining based flow cytometry (reference value: 11.2%); details: friedreich's ataxia lymphocyte, 0.25 µM
# [21] = Induction of inner mitochondrial membrane potential depolarization in human Friedreich's ataxia lymphocytes assessed as JC-1 aggregates at 2500 nM after 16 hrs by JC1-staining based flow cytometry (reference value: 83%); assay type: functional, Friedreich's ataxia lymphocyte
# [22] = system: Friedreich's ataxia lymphocyte; assay: as §1; assay type: functional; details: Homo sapiens
# [23] = Induction of mitochondrial biogenesis in FRDA patient derived Friedreich's ataxia lymphocytes assessed as increase in COX-1/SDH-A protein levels at 50 nM after 24 to 48 hrs by ELISA relative to control; assay type: functional, Homo sapiens, Friedreich's ataxia lymphocyte
# [24] = system: Friedreich's ataxia lymphocyte; assay: as §3; assay type: functional; details: Homo sapiens
# [25] = Increase in frataxin protein expression levels in FRDA patient derived Friedreich's ataxia lymphocytes at 50 nM after 24 to 48 hrs by ELISA relative to control; assay type: functional, Homo sapiens, Friedreich's ataxia lymphocyte
# Mus musculus = species: Mus musculus; assay: Substrate activity at NADH-ubiquinone oxidoreductase in mouse liver mitochondrial membrane fractions assessed as induction of electron flow from complex-1 by measuring NADH oxidation at 5 uM after 5 mins in presence of complex 1 blocker rotenone at 0.1 uM using NADH and coenzyme Q1; assay type: cell membranes
# [26] = system: Friedreich's ataxia lymphocyte; assay: Inhibition of DEM-induced ROS production in human Friedreich's ataxia lymphocytes at 250 to 2500 nM incubated for 16 hrs followed by DEM treatment for 80 mins by DCFH-DA dye based flow cytometry; assay type: functional, cell-based
# [27] = system: Friedreich's ataxia lymphocyte; assay: Increase in total ATP levels in human Friedreich's ataxia lymphocytes at 2.5 uM after 24 hrs by bioluminescence assay; assay type: functional, cell-based
# [28] = system: Friedreich's ataxia lymphocyte; assay: Increase in total ATP levels in human Friedreich's ataxia lymphocytes at 0.1 to 0.5 uM after 24 hrs by bioluminescence assay; assay type: functional, cell-based
# [29] = system: Friedreich's ataxia lymphocyte; assay: Restoration of total aconitase activity in FRDA patient derived Friedreich's ataxia lymphocytes at 50 to 250 nM after 5 days by colorimetric assay; assay type: functional, cell-based; details: Homo sapiens
# [30] = system: Friedreich's ataxia lymphocyte; assay: Increase in total ATP levels in human Friedreich's ataxia lymphocytes at 0.1 uM after 24 hrs by bioluminescence assay; assay type: functional, cell-based
Compound,"viability at 48 h, 0.25 µM [1] [%]",Activity [2] [%],Activity [3] [%],Activity [4] [%],Activity [5],Activity (Homo sapiens [6]),EC50 [8] [nM],Activity (Homo sapiens [9]),Activity [10],inhibition [11],Activity [12] [%],"viability at 24 h, 2.5 µM [13] [%]",Activity [15] [%],Activity [17] [%],"viability at 48 h, 2.5 µM [18] [%]","viability at 24 h, 0.25 µM [19] [%]",Activity [20] [%],Activity [21] [%],Activity [22],Activity [24],other results
CCCCCCCCCCCCCc1cc2nc3ccc(N(C)C)cc3sc-2cc1=[N+](C)C.[I-],86.7,78,72.2,13.1,Active,Active,37,Dose-dependent effect,inactive,Dose-dependent effect,17.6,41.3,82.8,58.5,21.6,89.3,10.3,30.6,,,Activity [7]: >=20%; Activity [14]: >=15%; Activity [16]: inactive
CCCCCCCCCCCc1cc2nc3ccc(N(C)C)cc3sc-2cc1=[N+](C)C.[I-],85.7,83.5,46.9,14.2,Active,Active,35,Dose-dependent effect,inactive,Dose-dependent effect,17.4,45.1,82.9,54.7,16.2,89.5,10.2,54.8,inactive,inactive,Activity [23]: >=15%; Activity [16]: inactive; Activity [25]: >=10%
CCCCCc1cc2nc3ccc(N(C)C)cc3sc-2cc1=[N+](C)C.[I-],78.7,95.2,70.9,21,Active,,66,Dose-dependent effect,inactive,,16.9,37.5,83.5,62.4,4.4,82.6,17.2,31.4,,,Activity [7]: >=20%; Activity (Mus musculus): Active; inhibition [26]: Active; Activity [14]: >=15%; Activity [16]: inactive
CN(C)c1ccc2nc3ccc(N(C)C)cc3[s+]c2c1.[Cl-] [METHYLENE BLUE ANHYDROUS],,84.3,51.2,22.5,,,75,,,,20.2,,80.3,39.6,,,14.3,49,,,Activity [7]: >=20%; Activity [23]: >=15%; Activity [14]: >=15%; Activity [25]: >=10%
CCCCCCCCCCCCCCCCCc1cc2nc3ccc(N4CCOCC4)cc3sc-2cc1=[N+]1CCOCC1.[I-],87.4,20.8,20.7,12.4,Active,,52,Dose-dependent effect,,,16,87.9,84.2,12,79,91.3,8.6,79.8,inactive,inactive,Activity [27]: inactive; inhibition [26]: Active; Activity [28]: Active
CCCCCCCCCCCCCCCCc1cc2nc3ccc(N(C)C)cc3sc-2cc1=[N+](C)C.[I-],89.4,18.6,23.3,10.5,Active,Active,29,Dose-dependent effect,,Dose-dependent effect,18.2,87,82.1,13,81.2,91.4,8.4,77,inactive,inactive,Activity [29]: Active; Activity [27]: inactive; Activity [23]: >=15%; Activity (Mus musculus): Active; Activity [28]: Active; Activity [25]: >=10%
CCCCCCCCCCCCCCCCCc1cc2nc3ccc(N(C)C)cc3sc-2cc1=[N+](C)C.[I-],87.7,13.5,23.4,12.2,Active,,48,Dose-dependent effect,,,15.2,89.2,85.3,10.5,86.2,91,8.8,77.1,inactive,inactive,Activity [27]: inactive; inhibition [26]: Active; Activity [28]: Active
CN(C)c1ccc2nc3ccc(=[N+](C)C)cc-3sc2c1 [METHYLENE BLUE ANHYDROUS],77.5,,,,Active,,,Dose-dependent effect,inactive,Dose-dependent effect,,60.2,,,15.4,85.4,,,,,Activity [29]: Active; Activity (Mus musculus): Active; Activity [16]: inactive
CCCCCCCCCCCCCCCc1cc2nc3ccc(N(C)C)cc3sc-2cc1=[N+](C)C.[I-],85.4,31.2,28.4,14.5,Active,Active,31,Dose-dependent effect,inactive,Dose-dependent effect,14.2,78.2,86.2,21.4,68.7,89.4,10.3,73,inactive,inactive,Activity [23]: >=15%; Activity [30]: Active; Activity [25]: >=10%

# From ChEMBL document CHEMBL4118183, “Lipophilic methylene blue analogues enhance mitochondrial function and increase frataxin levels in a cellular model of Friedreich's ataxia” (Bioorg Med Chem, 2018)
